We go through eleven molecules from US10172835B2, “Anticancer agent composition” (J-Pharma Co., Ltd., priority 2014, dated 2019).

Where a name gives a salt, the structure may show the parent alone.

One may read the viability as the share of living cells, or the viability signal relative to a control. A high value points to less harm to the cells.

Test [1] concerns KO99L cells (tPTEN−/− tumor cell line). Briefly: WST-1 cell viability assay on KO99L cells. Format: cell-based, murine. The settings on record: Mus musculus, KO99L cells, 48 h. The method, then: Two different assays were employed: i) In a 96-well plate format, cells (4.0±0.1×10^4 per well; 100 μL) were incubated with effectors (48 h, 37° C.; n=4 per experiment) and then WST-1 reagent (10 μL; Roche Diagnostics) added to each well of 96-well plates, incubated, and the formazan production was measured at 490 nm; and ii) cells (2.0±0.1×10^4 per well; 100 μL) were incubated with effectors (48 h, 37° C.; n=4 per experiment) and then bromodeoxyuridine reagent (10 μL/well; Roche Diagnostics) was added to each well and incubated (8 h, 37° C.). The cells were then fixed, denatured and incubated with anti-BrdU-conjugated with peroxidase (POD) antibody (100 μL/well). Colorimetric substrate (TMB: tetramethyl-benzidine; 100 μL/well) was added and BrdU incorporation quantified via optical density measurement (450 nm) which corresponds to DNA synthesis and proliferating cells.
In general terms: Formazan colour is commonly taken as a measure of viable cells.

In test [2] the test system is HT-29 cell derived from human large intestine cancer. The experiment in a line: Tumor growth in nude mouse SOI model (HT-29 grafted onto wall of large intestine). Format: in vivo. An excerpt:
[…] was expressed in a HT-29 cell derived from human large intestine cancer, and which was grafted onto the wall of large intestine of a mouse to produce a metamouse. According to this, the quantity of the size of the tumor could be determined with time with emission intensity. In FIG. 16, the size of tumor in each treatment group was shown with a bar graph. Group 1 is a control group, Groups 2 to 4 are a group in which COM-JP was intraperitoneally administered alone at 3.1, 12.5, and 50 mg/kg weight/day every day for 4 weeks, Group 5 is a group in which CDDP was intraperitoneally administered alone at 2.5 mg/kg/day three times on day 0, day 6, and day 13, Groups 6 to 8 are a group in which Groups 2 to 4 and Group 5 were combined to be administered in combination, and Group 9 is a group in which COM-JP was orally administered at 300 mg/kg/day every day for 4 weeks.

The next test has as its system KO99L cells. Briefly: Combination studies with COMPOUND-JP, WST-1 viability, Chou-Talalay combination index. Particulars: 48 h, suboptimal concentrations, in combination with COMPOUND-JP. Format: cell-based, murine.
In the next test the test system is mTORC1 / Akt activation. Briefly: Western blot of S6RP, 4EBP1 and Akt phosphorylation, KO99L cells. Format: cell-based, murine. The settings on record: 2.0-24 h; COMPOUND-JP 10.0 μM; MK-2206 5.0 μM; KU0063794 5.0 μM; rapamycin 10.0 nM; L-Asp, Erw 2.5 units/ml; velcade at 24 h. Background: A western blot detects proteins with antibodies after separation by electrophoresis.

In a further test the test system is CHOP. Briefly: Western blot of CHOP protein levels, KO99L cells. Format: cell-based, murine. The settings on record: for CHOP induction: FIG. 5B, COMPOUND-JP 5.0 and 10.0 μM, L-Asp 2.5 units/ml, rapamycin 10.0 nM, MK-2206 10.0 μM, KU0063794 10.0 μM; for CHOP expression, time course: FIG. 5A, COMPOUND-JP 10.0 μM, L-Asp, Erw 2.5 units/ml, 2.0-24 h. The method, then: (§1) Cell extracts were prepared using a cell lysis buffer (50 mM HEPES, pH 7.4, 150 mM NaCl, 20 mM EDTA, 100 mM NaF, 10 mM Na3VO4, 0.5% nonyl phenoxypolyethoxylethanol (NP40) supplemented with a cocktail of protease inhibitors. After SDS-PAGE separation and transfer to nitrocellulose immunoblotting was performed using the following antibodies against: Akt (Cell Signaling Technologies, #9272), CHOP (#2895), cleaved caspase 3 (#9664), c-Myc (#9402), eIF2a (#9721), 4EBP1 (#9644), LC3A/B (#12741), PARP (#9542), pJnk (T183/Y185) (#9251), pSer235-236-S6RP (#4856), pSer473-Akt (#9271), pSer65-4EBP1 (#9451) and S6RP (#2217); Bax (Sigma-Aldrich, B8429); PUMA (Abcam, ab54288); Bak (Millipore, 06536); ATF4 (Santa Cruz Biotechnologies, sc200), GADD34 (sc8327), Hsp60 (sc-1722), Hsp90 (sc-13119) and XBP1 (sc-7160); ATF6 (Imgenex, IMG-273).

A further test deals with c-myc. Briefly: Western blot of c-myc levels, KO99L cells. Format: cell-based, murine. Particulars: COMPOUND-JP 10.0 μM 2.0-24 h; Velcade 8 nM 24 h; KU0063794 10.0 μM; MK-2206 10.0 μM; rapamycin 100 nM. The method, then:
as §1

Test [3] has as its system Panc-1 cell derived from human pancreatic cancer. The experiment in a line: MTT, single agents and combination with COM-JP, Panc-1 cells. Format: cell-based. The method, then:
(§2) Two kind of cancer cells of a 44As3-11 cell derived from human scirrhous stomach cancer and a Panc-1 cell derived from human pancreatic cancer were cultured in the presence or absence of COM-JP, to which GEM and Pac was added on day 2, and the resultant mixture was continued to be cultured for 2 hours. Subsequently, the medium was replaced with a new medium, and the culture was performed in the presence or absence of COM-JP for 2 days more. Finally, the cells were collected, and the quantity of survival activity of the cells was determined by a MTT method. In each experiment, three cases of the group under the same conditions were measured, and the average value and the standard error, and the p-value of significance test were shown in the diagram.

Test [4] deals with 44As3-11 cell derived from human scirrhous stomach cancer. Briefly: MTT, single agents and combination with COM-JP, 44As3-11 cells. Format: cell-based. As to the method:
as §2

In test [1] (10.0 mM), `NC1(C(=O)O)CC2CCC1C2` (centres unmarked) [BCH, 2-Aminobicyclo-(2,2,1)-heptane-2-carboxylic acid, reference compound] gave a viability at 10000 µM of 30%.
Consider `[NH2][Pt]([NH2])([Cl])[Cl]` [CDDP, cisplatin, reference compound], for which the “efficacy on tumor growth, single administration” value in test [2] (COM-JP i.p. 3.1, 12.5, 50 mg/kg/day 4 weeks, CDDP i.p. 2.5 mg/kg/day day 0, 6, 13) is on record as “not recognized”. Further, the “efficacy of combination with COM-JP on tumor growth” value in test [2] (Group 8: COM-JP 50 mg/kg/day i.p. plus CDDP 2.5 mg/kg/day) is reported as “synergistic effect”.
In test [1] (30.0 mM), `CC(C)C[C@@H](N)C(=O)O` [D-Leucine, D-leucine, reference compound] registered a viability at 30000 µM of 60%.
In the case of `COc1ccc(-c2ccc3c(N4CCOCC4)nc(N4C[C@@H](C)O[C@@H](C)C4)nc3n2)cc1CO` [KU0063794, rel-5-[2-[(2R,6S)-2,6-dimethyl-4-morpholinyl]-4-(4-morpholinyl)pyrido[2,3-d]pyrimidin-7-yl]-2-methoxybenzenemethanol, reference compound], in the test on KO99L cells, the “combination effect with COMPOUND-JP on metabolic activity/cell survival (Combination Index)” value was “less efficient”. Besides, in the test with mTORC1 / Akt activation, the 4EBP1 phosphorylation result was “completely block”, the “Akt phosphorylation (serine 473) / activation” value is on record as “completely block” and the “S6RP phosphorylation (mTORC1 activation)” value is “completely block”. Moreover, the CHOP induction result in the test with CHOP is recorded as “did not result in CHOP induction”. In addition, in the test on c-myc, the c-myc protein level entry is “slightly influenced the two lower bands”.
For the molecule `NC1(c2ccc(-c3nc4ccn5c(=O)[nH]nc5c4cc3-c3ccccc3)cc2)CCC1` [MK-2206, reference compound], in the test with mTORC1 / Akt activation, the 4EBP1 phosphorylation result is on record as “completely block”, the “Akt phosphorylation (serine 473) / activation” value is “completely block” and the “S6RP phosphorylation (mTORC1 activation)” value is “completely block”. The CHOP induction result with CHOP is reported as “did not result in CHOP induction”. For the same molecule, in the test with c-myc, the c-myc protein level result was “dramatic disappearance of all three c-myc isoforms”.
In the case of `COc1cccc2c1C(=O)c1c(O)c3c(c(O)c1C2=O)C[C@@](O)(C(=O)CO)C[C@@H]3O[C@H]1C[C@H](N)[C@H](O)[C@H](C)O1` [doxorubicin, doxorubicin hydrochloride], in the test with KO99L cells, the “combination effect with COMPOUND-JP on metabolic activity/cell survival (Combination Index)” value is reported as “synergy”.
Turning to `Nc1ccn([C@@H]2O[C@H](CO)[C@@H](O)C2(F)F)c(=O)n1` [gemstabine, gemcitabine], in test [3], the “inhibitory effect of combination with COM-JP (15 μM)” value (from here on “inhibitory effect of combination”) is reported as “additive effect”; the “proliferation activity, agent used alone for 2 hours” value (“proliferation activity” below) is recorded as “decreased in a dose-dependent manner”; the “relative inhibitory effect of single agents” value (shortened to “relative inhibitory effect”) was “extremely small”. Also, in test [4], the “inhibitory effect of combination” value is “additive effect” and the “proliferation activity” value is “decreased in a dose-dependent manner”.
With `CC(=O)O[C@H]1C(=O)[C@@]2(C)[C@H]([C@H](OC(=O)c3ccccc3)[C@]3(O)C[C@H](OC(=O)[C@H](O)[C@@H](NC(=O)c4ccccc4)c4ccccc4)C(C)=C1C3(C)C)[C@]1(OC(C)=O)CO[C@@H]1C[C@@H]2O` [paclitaxel], in test [3], the “inhibitory effect of combination” value was “additive effect”; the “proliferation activity” value is recorded as “decreased in a dose-dependent manner”; the “relative inhibitory effect” value is listed as “stronger than that of gemstabine”. For the same molecule, in test [4], the “inhibitory effect of combination” value is “additive effect”; the “proliferation activity” value was “decreased in a dose-dependent manner”; the “relative inhibitory effect” value is on record as “stronger than that of gemstabine”.
For `CC(C)C[C@H](NC(=O)[C@H](Cc1ccccc1)NC(=O)c1cnccn1)B(O)O` [velcade, bortezomib, reference compound], in the test with mTORC1 / Akt activation, the 4EBP1 phosphorylation entry is “completely abolished”, the “Akt phosphorylation (serine 473) / activation” value was “completely abolished” and the “S6RP phosphorylation (mTORC1 activation)” value is reported as “completely abolished”. For the same molecule, the CHOP induction entry in the test on CHOP is reported as “strongly induced”. Besides, the c-myc protein level result in the test on c-myc was “Analogous observations”.

B1: Erw: enzyme that can degrade extracellular asparagine, with higher glutaminase activity (protein, UniProt P06608 22-348, looked up)
L-asparaginase: ADKLPNIVILATGGTIAGSAATGTQTTGYKAGALGVDTLINAVPEVKKLANVKGEQFSNMASENMTGDVVLKLSQRVNELLARDDVDGVVITHGTDTVEESAYFLHLTVKSDKPVVFVAAMRPATAISADGPMNLLEAVRVAGDKQSRGRGVMVVLNDRIGSARYITKTNASTLDTFKANEEGYLGVIIGNRIYYQNRIDKLHTTRSVFDVRGLTSLPKVDILYGYQDDPEYLYDAAIQHGVKGIVYAGMGAGSVSVRGIAGMRKAMEKGVVVIRSTRTGNGIVPPDEELPGLVSDSLNPAHARILLMLALTRTSDPKVIQEYFHTY
As to B1, in the test on mTORC1 / Akt activation, the 4EBP1 phosphorylation result is recorded as “altered 4EBP1 phosphorylation”, the “Akt phosphorylation (serine 473) / activation” value is “did not significantly influence Akt phosphorylation” and the “S6RP phosphorylation (mTORC1 activation)” value is reported as “altered S6RP phosphorylation”. Besides, in the test on CHOP, the “CHOP expression, time course” value was “induced a transient response”.

B2: L-Asp: enzyme that can degrade extracellular asparagine and also possesses glutaminase activity (protein, UniProt P00805 23-348, looked up)
L-asparaginase 2: LPNITILATGGTIAGGGDSATKSNYTVGKVGVENLVNAVPQLKDIANVKGEQVVNIGSQDMNDNVWLTLAKKINTDCDKTDGFVITHGTDTMEETAYFLDLTVKCDKPVVMVGAMRPSTSMSADGPFNLYNAVVTAADKASANRGVLVVMNDTVLDGRDVTKTNTTDVATFKSVNYGPLGYIHNGKIDYQRTPARKHTSDTPFDVSKLNELPKVGIVYNYANASDLPAKALVDAGYDGIVSAGVGNGNLYKSVFDTLATAAKTGTAVVRSSRVPTGATTQDAEVDDAKYGFVASGTLNPQKARVLLQLALTQTKDPQQIQQIFNQY
For the molecule B2, the “combination effect with COMPOUND-JP on metabolic activity/cell survival (Combination Index)” value in the test on KO99L cells is reported as “potentiate”. Moreover, in the test on mTORC1 / Akt activation, the 4EBP1 phosphorylation entry is “altered 4EBP1 phosphorylation”, the “Akt phosphorylation (serine 473) / activation” value is on record as “did not significantly influence Akt phosphorylation” and the “S6RP phosphorylation (mTORC1 activation)” value is listed as “altered S6RP phosphorylation”. The “CHOP expression, time course” value with CHOP was “lower magnitude compared to COMPOUND-JP”.
